Assay results published in ChEMBL document CHEMBL3044839, “Bisdesmosidic saponins from Securidaca longepedunculata roots: evaluation of deterrency and toxicity to Coleopteran storage pests” (2009).
Active and inactive are the calls of the source. No cut-off for these calls is given here.

How the values were obtained:
[1] = tested on: Sitophilus zeamais; assay: Insecticidal activity against adult Sitophilus zeamais in compound pretreated stored maize commodities assessed as decrease in number of damaged seeds at 2.5 mg measured after 2 weeks (reference value: >95%); assay type: functional; parameters: scale not given: the % may be the effect or the level left
[2] = tested on: Sitophilus zeamais; assay: Insecticidal activity against adult Sitophilus zeamais in compound pretreated stored maize commodities assessed as mortality at 2.5 mg measured after 2 weeks; assay type: functional, organism-based
[3] = tested on: Callosobruchus maculatus; assay: Insecticidal activity against Callosobruchus maculatus in compound pretreated stored cowpea commodities assessed as decrease in egg hatching on the surface of seeds at 2.5 mg; assay type: functional, organism-based
[4] = tested on: Callosobruchus maculatus; assay: Insecticidal activity against Callosobruchus maculatus in compound pretreated stored cowpea commodities assessed as decrease in number of adults emerging in F1 generation at 2.5 mg; assay type: functional, organism-based
[5] = tested on: Callosobruchus maculatus; assay: Insecticidal activity against adult Callosobruchus maculatus in compound pretreated stored cowpea commodities assessed as decrease in number of oviposted eggs on the surface of seeds at 2.5 mg by choice bioassay; assay type: functional, organism-based

`COc1ccc(C=CC(=O)O[C@@H]2[C@H](O)[C@@H](O[C@@H]3O[C@@H](C)[C@H](O[C@@H]4OC[C@@H](O)[C@H](O[C@@H]5OC[C@H](O)[C@H](O)[C@H]5O)[C@H]4O)[C@@H](O[C@@H]4OC[C@](O)(CO)[C@H]4O)[C@H]3O)[C@H](OC(=O)[C@]34CCC(C)(C)C[C@H]3C3=CC[C@@H]5[C@@]6(C)C[C@H](O)[C@H](O[C@@H]7O[C@H](CO)[C@@H](O)[C@H](O)[C@H]7O)[C@@](C)(C(=O)O)[C@@H]6CC[C@@]5(C)[C@]3(C)CC4)O[C@@H]2C)cc1` was tested, and the Activity [1] was <35%, the mortality [2] was “Active” and the Activity [3] was “Active”. The Activity [4] was “Active” and the Activity [5] was “Active”.
